Experimental data: patent US9447136B2, “Semisynthetic derivatives of Nystatin A1” (BLIRT S.A., priority 2012, dated 2016)

How the values were obtained:
[1] = tested on: Candida albicans ATCC 10231; assay: Antifungal activity in vitro, serial dilution in RPMI 1640; assay type: cell-based; details: Table 2A, RPMI 1640, pH 7.0; for Antifungal activity Candida albicans ATCC 10231 IC50: A531 50% of control; for Antifungal activity Candida albicans ATCC 10231 MIC: A531 at most 20% of control
Method in brief: (§1)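 Serial dilution, RPMI 1640 pH 7.0 (M27-A2 reference method); A531 read-out. IC50 = interpolated conc. at 50% of control A531; MIC = lowest conc. with A531 ≤20% of control.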

[2] = tested on: Candida glabrata DSM 11226; assay: as above; assay type: cell-based; details: Table 2A; RPMI 1640, pH 7.0
Method in brief: as §1

Candida krusei DSM 6128 = assay: as above; assay type: cell-based; details: Table 2A; RPMI 1640, pH 7.0
Method in brief: as §1

[3] = tested on: Candida lusitaniae DSM 70102; assay: as above; assay type: cell-based; details: Table 2A; RPMI 1640, pH 7.0
Method in brief: as §1

[4] = tested on: Candida tropicalis KKP 334; assay: as above; assay type: cell-based; details: Table 2A; RPMI 1640, pH 7.0
Method in brief: as §1

[5] = tested on: Saccharomyces cerevisiae ATCC 9763; assay: as above; assay type: cell-based; details: Table 2A; RPMI 1640, pH 7.0; A531 at most 20% of control
Method in brief: as §1

CCRF-CEM = assay: Cytotoxic activity against mammalian cells in tissue culture (MTT); assay type: cell-based, human; details: CCRF-CEM, 120 h, MTT
Description: (§2) For examinations were used selected cell lines: CCRF-CEM—human acute lymphoblastic leukemia; HepG2—human malignant hepatoma; LLC-PK1—epithelial cell of pig kidney; All lines were from ATCC collection.
(§3) The study are conducted using described below methods of culturing and determination of cytotoxic activity.
(§4) CCRF-CEM cells were cultured in medium RPMI 1640+10% fetal bovine serum (FBS), LLC-PK1 cells in medium Medium 199+3% FBS, HepG2 cells in medium MEM+10% FBS. All media contained 100 μg/ml of penicillin G and streptomycin. 24-wells microplates containing appropriate medium were inoculated with the cells in amount of 1.2×10^4 cells/well and allowed to stand overnight. Next, tested compounds as solution in dimethylsulfoxide (DMSO) were added in volume of 10 μl (serial 2× dilutions). To control well 10 μl of DMSO was added. Microplates with cell suspensions were incubated for 120 h at temperature 37° C. at atmosphere of 95%/5% CO2. After incubation, to all wells 200 μl of solution of 3-(4,5-dimethylthiazole-2-yl)-2,5-diphenylotetrazole bromide (MTT) in PBS (4 mg/ml) was added and plates were further incubated for 4 h at 37° C. Next, to dissolve crystals of formazane 1 ml of DMSO was added and absorption of solutions was measured at the wavelength λ=540 nm (A540), using a microplates reader (Victor^3, Perkin-Wallac). […] From these graphs IC50 values were read, that is concentration of tested compound in the presence at which A540 value is half of A540 value measured in the control sample.

HepG2 = assay: as above; assay type: cell-based, human; details: HepG2, 120 h, MTT
Description: as §2, §3, §4

LLC-PK1 = assay: as above; assay type: cell-based, pig; details: LLC-PK1, 120 h, MTT
Description: as §2, §3, §4

Human erythrocytes = assay: Hemotoxicity (hemolytic activity); details: human erythrocytes; concentration causing 10% of hemolysis
Description: The hemotoxicity determination were carried out by the serial dilutions method, according to the procedure described earlier (Ślisz, M., et al., E., J Antibiot 57: 669-678 (2004)). Human erythrocytes were suspensed in the solution of saline to obtain a cell density of suspension 2×10^7/ml. Suitable amounts of diluted solutions of compounds were added to the cell suspension in tubes and were incubated at 37° C. for 30 minutes and then centrifuged (1700×g, 10 min, 4° C.). The concentration of hemoglobin in supernatant after centrifugation of erythrocytes suspension were determined by measuring the absorbance at wavelength λ=540 nm (A540). The maximum level of hemolysis was obtained after incubation of cells suspension in the presence of 0.1% Tritone X-100 (control sample). […] From these graphs, the EH50 values were read which are the interpolated concentrations of compound, for which the A540 value is exactly 50% of the A540 value measured for the control sample.

Compound	Antifungal activity Candida albicans ATCC 10231 IC50 [1]	Antifungal activity Candida albicans ATCC 10231 MIC [1]	Antifungal activity Candida glabrata DSM 11226 MIC [2]	Antifungal activity Candida krusei DSM 6128 MIC (Candida krusei DSM 6128)	Antifungal activity Candida lusitaniae DSM 70102 MIC [3]	Antifungal activity Candida tropicalis KKP 334 MIC [4]	Antifungal activity Saccharomyces cerevisiae ATCC 9763 MIC [5]	Cytotoxicity IC50 CCRF-CEM (CCRF-CEM)	Cytotoxicity IC50 HepG2 (HepG2)	Cytotoxicity IC50 LLC-PK1 (LLC-PK1)	EH10 (Human erythrocytes)
CCN(CC)CCNC(=S)NC1C(O)C(C)OC(O[C@H]2/C=C/C=C/C=C/C=C/CC/C=C/C=C/[C@H](C)[C@@H](O)[C@@H](C)[C@H](C)OC(=O)C[C@H](O)C[C@H](O)C[C@H](O)CC[C@@H](O)[C@H](O)CC3(O)C[C@H](O)[C@@H](C(=O)O)[C@H](C2)O3)C1O (stereo partly drawn) [Compound N14, N-{3-[2-(N,N-diethylamino)ethyl]thioureidyl}nystatin A1]	3.21 µg/mL	8 µg/mL	16 µg/mL	16 µg/mL	4 µg/mL	8 µg/mL	4 µg/mL	>100 µg/mL	>100 µg/mL	>100 µg/mL	–
CC1OC(O[C@H]2/C=C/C=C/C=C/C=C/CC/C=C/C=C/[C@H](C)[C@@H](O)[C@@H](C)[C@H](C)OC(=O)C[C@H](O)C[C@H](O)C[C@H](O)CC[C@@H](O)[C@H](O)CC3(O)C[C@H](O)[C@@H](C(=O)O)[C@H](C2)O3)C(O)C(NC(=S)NCCCN(C)C)C1O (stereo partly drawn) [Compound N17, N-{3-[3-(N,N-dimethylamino)propyl]thioureidyl}nystatin A1]	2.92 µg/mL	4 µg/mL	8 µg/mL	8 µg/mL	4 µg/mL	4 µg/mL	4 µg/mL	>100 µg/mL	>100 µg/mL	>100 µg/mL	156.33 µg/mL
